Source: patent US11352340B2, “Pyridine and pyridimine compounds as PI3K-gamma inhibitors” (Incyte Corporation, priority 2016, dated 2022)
Counter-ions that a name gives are not always drawn.

Legend:
[1] = target: PI3Kγ (p110γ) Recombinant Human Protein (Homo sapiens (Human), UniProt P48736); test: PI3K-γ Scintillation Proximity Assay; assay type: biochemical; settings: read-out: PI3K-gamma SPA IC50
Procedure, shortened: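 Recombinant human p110γ (13 nM) with 20 μM PIP2 and 2 μM ATP plus 0.5 μCi [γ-33P]ATP in 20 mM MOPS pH 6.7, 10 mM MgCl2, 5 mM DTT, 0.03% CHAPS, 2% DMSO, 120 min at room temperature. Product captured on WGA SPA beads and counted; IC50 fitted from % of solvent control versus log concentration.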

[2] = target: PI3Kδ (p110δ/p85α) Recombinant Human Protein (Homo sapiens (Human), UniProt O00329); test: PI3Kδ Scintillation Proximity Assay; assay type: biochemical; settings: read-out: PI3K-delta SPA IC50
PI3Kδ (p110δ/p85α) Recombinant Human Protein, sequence (O00329 whole entry): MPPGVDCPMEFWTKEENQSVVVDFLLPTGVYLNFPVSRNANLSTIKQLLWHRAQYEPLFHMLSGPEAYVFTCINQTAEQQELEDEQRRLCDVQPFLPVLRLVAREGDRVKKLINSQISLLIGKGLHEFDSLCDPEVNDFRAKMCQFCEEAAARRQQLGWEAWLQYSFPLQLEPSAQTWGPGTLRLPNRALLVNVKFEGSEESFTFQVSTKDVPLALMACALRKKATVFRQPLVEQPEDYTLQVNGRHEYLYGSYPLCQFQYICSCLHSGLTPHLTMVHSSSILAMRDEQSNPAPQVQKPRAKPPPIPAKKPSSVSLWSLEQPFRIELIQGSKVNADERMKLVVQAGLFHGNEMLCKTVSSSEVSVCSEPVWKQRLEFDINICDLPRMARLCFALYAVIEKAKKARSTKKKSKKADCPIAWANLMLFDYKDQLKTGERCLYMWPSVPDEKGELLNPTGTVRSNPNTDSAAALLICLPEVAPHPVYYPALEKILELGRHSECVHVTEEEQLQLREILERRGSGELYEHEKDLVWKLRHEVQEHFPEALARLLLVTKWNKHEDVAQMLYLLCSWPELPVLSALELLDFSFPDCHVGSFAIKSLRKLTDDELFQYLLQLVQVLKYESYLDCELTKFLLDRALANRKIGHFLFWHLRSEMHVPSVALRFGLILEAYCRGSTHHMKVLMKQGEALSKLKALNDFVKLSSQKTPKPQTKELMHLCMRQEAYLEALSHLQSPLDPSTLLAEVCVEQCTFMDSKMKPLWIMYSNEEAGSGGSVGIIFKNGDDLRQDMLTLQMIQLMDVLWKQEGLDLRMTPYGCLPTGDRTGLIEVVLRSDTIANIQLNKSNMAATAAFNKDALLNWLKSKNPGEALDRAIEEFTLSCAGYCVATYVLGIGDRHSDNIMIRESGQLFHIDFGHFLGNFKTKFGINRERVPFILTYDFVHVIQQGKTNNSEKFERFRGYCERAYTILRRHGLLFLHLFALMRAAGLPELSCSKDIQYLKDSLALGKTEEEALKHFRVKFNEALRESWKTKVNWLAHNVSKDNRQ
PI3Kδ (p110δ/p85α) Recombinant Human Protein, sequence (P27986 whole entry partner): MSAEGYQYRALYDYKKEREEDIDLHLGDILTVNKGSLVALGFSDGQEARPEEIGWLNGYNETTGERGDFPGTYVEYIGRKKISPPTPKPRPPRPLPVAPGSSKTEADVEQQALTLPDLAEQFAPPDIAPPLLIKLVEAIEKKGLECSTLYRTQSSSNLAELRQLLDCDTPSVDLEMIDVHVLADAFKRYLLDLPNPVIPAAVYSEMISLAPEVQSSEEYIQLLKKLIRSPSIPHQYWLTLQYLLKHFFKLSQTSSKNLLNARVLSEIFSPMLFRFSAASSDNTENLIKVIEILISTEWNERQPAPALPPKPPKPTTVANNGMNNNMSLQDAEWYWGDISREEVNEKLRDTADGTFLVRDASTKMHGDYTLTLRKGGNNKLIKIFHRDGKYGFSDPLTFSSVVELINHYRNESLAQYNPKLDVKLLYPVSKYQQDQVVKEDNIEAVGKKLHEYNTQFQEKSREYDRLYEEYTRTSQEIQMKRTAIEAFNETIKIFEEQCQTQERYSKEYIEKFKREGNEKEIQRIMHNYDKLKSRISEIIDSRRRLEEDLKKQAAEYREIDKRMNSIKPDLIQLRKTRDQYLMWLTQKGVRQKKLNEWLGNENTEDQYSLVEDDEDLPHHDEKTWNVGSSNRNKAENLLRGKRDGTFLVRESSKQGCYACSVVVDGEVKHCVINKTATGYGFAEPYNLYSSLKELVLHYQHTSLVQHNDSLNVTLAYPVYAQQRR
Procedure, shortened: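 Recombinant human p110δ/p85α (3.4 nM) with 20 μM PIP2 and 2 μM ATP plus [γ-33P]ATP, in 20 mM MOPS pH 6.7, 10 mM MgCl2, 5 mM DTT, 0.03% CHAPS, 2% DMSO; 120 min at room temperature. Product captured on WGA SPA beads, scintillation counted; IC50 from percent-of-control curves.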

PI3Kγ (p110γ) Recombinant Human Protein, sequence (P48736 whole entry): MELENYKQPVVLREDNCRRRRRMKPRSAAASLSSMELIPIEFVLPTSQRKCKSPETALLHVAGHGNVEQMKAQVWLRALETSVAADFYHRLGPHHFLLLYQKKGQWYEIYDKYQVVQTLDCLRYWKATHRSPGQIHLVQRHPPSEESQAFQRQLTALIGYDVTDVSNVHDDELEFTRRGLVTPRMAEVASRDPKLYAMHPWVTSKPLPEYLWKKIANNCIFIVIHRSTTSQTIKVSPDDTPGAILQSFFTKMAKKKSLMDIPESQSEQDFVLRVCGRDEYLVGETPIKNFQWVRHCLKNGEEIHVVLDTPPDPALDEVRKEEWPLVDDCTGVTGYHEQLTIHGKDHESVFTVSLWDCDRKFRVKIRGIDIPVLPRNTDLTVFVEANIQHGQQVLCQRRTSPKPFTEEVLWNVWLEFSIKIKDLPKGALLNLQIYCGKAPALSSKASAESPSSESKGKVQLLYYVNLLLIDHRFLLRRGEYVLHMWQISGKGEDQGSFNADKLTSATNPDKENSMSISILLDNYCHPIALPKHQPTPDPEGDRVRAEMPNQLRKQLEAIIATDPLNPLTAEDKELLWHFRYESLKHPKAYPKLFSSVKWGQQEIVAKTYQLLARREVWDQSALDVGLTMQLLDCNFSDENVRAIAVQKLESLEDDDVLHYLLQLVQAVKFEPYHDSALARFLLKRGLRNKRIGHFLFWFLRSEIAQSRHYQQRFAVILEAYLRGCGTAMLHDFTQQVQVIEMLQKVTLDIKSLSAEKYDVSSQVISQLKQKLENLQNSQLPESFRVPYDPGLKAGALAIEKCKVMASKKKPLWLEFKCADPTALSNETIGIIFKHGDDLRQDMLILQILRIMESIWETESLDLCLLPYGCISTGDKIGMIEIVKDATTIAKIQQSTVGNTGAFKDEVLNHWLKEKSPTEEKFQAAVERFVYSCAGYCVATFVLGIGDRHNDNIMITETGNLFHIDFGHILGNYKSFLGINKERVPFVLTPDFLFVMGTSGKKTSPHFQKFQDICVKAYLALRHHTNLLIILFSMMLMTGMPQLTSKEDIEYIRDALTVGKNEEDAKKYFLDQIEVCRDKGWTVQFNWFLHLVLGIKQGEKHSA

Compound | IC50 [1] [nM] | IC50 [2] [nM]
Cc1nc(-c2cc(-c3cncc(C(=O)N4CC5(CCN(C)C5=O)C4)c3)ccn2)[nH]c1C [Example 171, 2-(2′-(4,5-Dimethyl-1H-imidazol-2-yl)-3,4′-bipyridine-5-carbonyl)-6-methyl-2,6-diazaspiro[3.4]octan-5-one trifluoroacetate salt] | ≤ 100 | ≤ 100
Cc1nc(-c2cc(-c3cncc(C(=O)N[C@@H]4CCOC4)c3)ccn2)[nH]c1C [Example 176, 2′-(4,5-Dimethyl-1H-imidazol-2-yl)-N-[(3R)-tetrahydrofuran-3-yl]-3,4′-bipyridine-5-carboxamide trifluoroacetate salt] | ≤ 100 | ≤ 500
Cc1nc(-c2cc(-c3cncc(C(=O)N4CCC(O)CC4)c3)ccn2)[nH]c1C [Example 177, 1-{[2′-(4,5-Dimethyl-1H-imidazol-2-yl)-3,4′-bipyridin-5-yl]carbonyl}piperidin-4-ol] | ≤ 100 | ≤ 100
Cc1nc(-c2cc(-c3cncc(C(=O)N4CCC(Cc5ccccc5)CC4)c3)ccn2)[nH]c1C [Example 189, 5-[(4-Benzylpiperidin-1-yl)carbonyl]-2′-(4,5-dimethyl-1H-imidazol-2-yl)-3,4′-bipyridine trifluoroacetate salt] | ≤ 100 | ≤ 50
Cc1nc(-c2cc(-c3cncc(C(=O)N[C@@H](C)c4ccccc4)c3)ccn2)[nH]c1C [Example 195, 2′-(4,5-Dimethyl-1H-imidazol-2-yl)-N-[(1S)-1-phenylethyl]-3,4′-bipyridine-5-carboxamide trifluoroacetate salt] | ≤ 500 | ≤ 500
Cc1nc(-c2cc(-c3cncc(C(=O)N4CCC(O)(Cc5ccccc5)CC4)c3)ccn2)[nH]c1C [Example 196, 4-Benzyl-1-{[2′-(4,5-dimethyl-1H-imidazol-2-yl)-3,4′-bipyridin-5-yl]carbonyl}piperidin-4-ol trifluoroacetate salt] | ≤ 500 | ≤ 50
Cc1nc(-c2cc(-c3cncc(C(=O)N4CCCN(C)CC4)c3)ccn2)[nH]c1C [Example 200, 2′-(4,5-Dimethyl-1H-imidazol-2-yl)-5-[(4-methyl-1,4-diazepan-1-yl)carbonyl]-3,4′-bipyridine] | ≤ 500 | ≤ 500
COCCN(C)C(=O)c1cncc(-c2ccnc(-c3nc(C)c(C)[nH]3)c2)c1 [Example 204, 2′-(4,5-Dimethyl-1H-imidazol-2-yl)-N-(2-methoxyethyl)-N-methyl-3,4′-bipyridine-5-carboxamide trifluoroacetate salt] | ≤ 100 | ≤ 50
Cc1nc(-c2cc(-c3cncc(C(=O)N(C)CCCO)c3)ccn2)[nH]c1C [Example 209, 2′-(4,5-Dimethyl-1H-imidazol-2-yl)-N-(3-hydroxypropyl)-N-methyl-3,4′-bipyridine-5-carboxamide] | ≤ 100 | ≤ 100
CCCN(C)C(=O)c1cncc(-c2ccnc(-c3nc(C)c(C)[nH]3)c2)c1 [Example 210, 2′-(4,5-Dimethyl-1H-imidazol-2-yl)-N-methyl-N-propyl-3,4′-bipyridine-5-carboxamide] | ≤ 100 | ≤ 500
CC(=O)N1CC=C(c2ccnc(-c3nc(C)c(C)[nH]3)c2)CC1 [Example 217, 1(4-(2-(4,5-Dimethyl-1H-imidazol-2-yl)pyridin-4-yl)-5,6-dihydropyridin-1(2H)-yl)ethanone trifluoroacetate salt] | > 500 | > 500
CC(=O)N1CCC=C(c2ccnc(-c3nc(C)c(C)[nH]3)c2)C1 [Example 219, 1-(3-(2-(4,5-Dimethyl-1H-imidazol-2-yl)pyridin-4-yl)-5,6-dihydropyridin-1(2H)-yl)ethanone trifluoroacetate salt] | > 500 | > 500
Cc1nc(-c2cc(C3=CCCN(S(C)(=O)=O)C3)ccn2)[nH]c1C [Example 220, 2-(4,5-Dimethyl-1H-imidazol-2-yl)-4-(1-(methylsulfonyl)-1,2,5,6-tetrahydropyridin-3-yl)pyridine trifluoroacetate salt] | ≤ 500 | > 500
Cc1nc(-c2cc(C3=CCCN(C(=O)c4ccccc4)C3)ccn2)[nH]c1C [Example 222, (3-(2-(4,5-Dimethyl-1H-imidazol-2-yl)pyridin-4-yl)-5,6-dihydropyridin-1(2H)-yl)(phenyl)methanone trifluoroacetate salt] | > 500 | > 500
Cc1nc(-c2cc(C3=CCCN(Cc4ccccc4)C3)ccn2)[nH]c1C [Example 223, 4-(1-Benzyl-1,2,5,6-tetrahydropyridin-3-yl)-2-(4,5-dimethyl-1H-imidazol-2-yl)pyridine trifluoroacetate salt] | > 500 | > 500
Cc1nc(-c2cc(C3=CCCN(Cc4ccc(Cl)cc4)C3)ccn2)[nH]c1C [Example 224, 4-(1-(4-Chlorobenzyl)-1,2,5,6-tetrahydropyridin-3-yl)-2-(4,5-dimethyl-1H-imidazol-2-yl)pyridine trifluoroacetate salt] | > 500 | > 500
Cc1nc(-c2cc(C3=CCCN(CC4CCOCC4)C3)ccn2)[nH]c1C [Example 225, 2-(4,5-Dimethyl-1H-imidazol-2-yl)-4-(1-((tetrahydro-2H-pyran-4-yl)methyl)-1,2,5,6-tetrahydropyridin-3-yl)pyridine trifluoroacetate salt] | > 500 | > 500
CC(=O)N1CC=C(c2ccnc(-c3nc(C)c(C)[nH]3)c2)C1 [Example 226, 1-(3-(2-(4,5-Dimethyl-1H-imidazol-2-yl)pyridin-4-yl)-2,5-dihydro-1H-pyrrol-1-yl)ethanone trifluoroacetate salt] | > 500 | > 500
Cc1nc(-c2cc(C3=CCN(S(C)(=O)=O)C3)ccn2)[nH]c1C [Example 227, 2-(4,5-Dimethyl-1H-imidazol-2-yl)-4-(1-(methylsulfonyl)-2,5-dihydro-1H-pyrrol-3-yl)pyridine trifluoroacetate salt] | > 500 | > 500
Cc1nc(-c2cc(C3=CCN(Cc4ccccc4)C3)ccn2)[nH]c1C [Example 228, 4-(1-Benzyl-2,5-dihydro-1H-pyrrol-3-yl)-2-(4,5-dimethyl-1H-imidazol-2-yl)pyridine trifluoroacetate salt] | > 500 | > 500
Cc1nc(-c2cc(C3=CCN(Cc4ccc(Cl)cc4)C3)ccn2)[nH]c1C [Example 229, 4-(1-(4-Chlorobenzyl)-2,5-dihydro-1H-pyrrol-3-yl)-2-(4,5-dimethyl-1H-imidazol-2-yl)pyridine trifluoroacetate salt] | > 500 | > 500
Cc1nc(-c2cc(C3=CCN(CC4CCOCC4)C3)ccn2)[nH]c1C [Example 230, 2-(4,5-Dimethyl-1H-imidazol-2-yl)-4-(1-((tetrahydro-2H-pyran-4-yl)methyl)-2,5-dihydro-1H-pyrrol-3-yl)pyridine trifluoroacetate salt] | > 500 | > 500
Cc1nc(-c2cc(-c3cncc(Cl)c3)ccn2)[nH]c1C [Example 234, 5-Chloro-2′-(4,5-dimethyl-1H-imidazol-2-yl)-3,4′-bipyridine] | ≤ 100 | ≤ 100
Cc1nc(-c2cc(-c3cncc(C4=CCN(C(=O)OC(C)(C)C)C4)c3)ccn2)[nH]c1C [Example 235, tert-Butyl 3-[2′-(4,5-dimethyl-1H-imidazol-2-yl)-3,4′-bipyridin-5-yl]-2,5-dihydro-1H-pyrrole-1-carboxylate] | ≤ 500 | > 500
Cc1nc(-c2cc(-c3cncc(C4=CCNC4)c3)ccn2)[nH]c1C [Example 236, 5-(2,5-Dihydro-1H-pyrrol-3-yl)-2′-(4,5-dimethyl-1H-imidazol-2-yl)-3,4′-bipyridine] | > 500 | > 500
CC(=O)N1CC=C(c2cncc(-c3ccnc(-c4nc(C)c(C)[nH]4)c3)c2)C1 [Example 238, 1-(3-(2′-(4,5-Dimethyl-1H-imidazol-2-yl)-3,4′-bipyridin-5-yl)-2,5-dihydro-1H-pyrrol-1-yl)ethanone] | > 500 | ≤ 500
COC(=O)N1CC=C(c2cncc(-c3ccnc(-c4nc(C)c(C)[nH]4)c3)c2)C1 [Example 239, Methyl 3-(2′-(4,5-dimethyl-1H-imidazol-2-y1)-3,4′-bipyridin-5-yl)-2,5-dihydro-1H-pyrrole-1-carboxylate] | ≤ 500 | ≤ 500
Cc1[nH]c(-c2cc(-c3cncc(S(C)(=O)=O)c3)ccn2)nc1C(=O)N1CC[C@H](O)C1 [Example 246, (3S)-1-({5-Methyl-2-[5-(methylsulfonyl)-3,4′-bipyridin-2′-yl]-1H-imidazol-4-yl}carbonyl)pyrrolidin-3-ol] | ≤ 500 | ≤ 500
Cc1[nH]c(-c2cc(-c3cncc(S(C)(=O)=O)c3)ccn2)nc1C(=O)N(C)C [Example 251, N,N,5-Trimethyl-2-[5-(methylsulfonyl)-3,4′-bipyridin-2′-yl]-1H-imidazole-4-carboxamide trifluoroacetate salt] | ≤ 500 | ≤ 100
Cc1[nH]c(-c2cc(-c3cncc(N4CCOCC4)c3)ccn2)nc1C(=O)O [Example 257, 5-Methyl-2-(5-morpholin-4-yl-3,4′-bipyridin-2′-yl)-1H-imidazole-4-carboxylic Acid Trifluoroacetate Salt] | ≤ 500 | > 500
